Where “and” joins values, the source holds several entries; their conditions need not be identical. Equal values may be shown once.
Key:
Assay type in all cases: cell-based
SCD1 = target: T1, SCD1 (Homo sapiens, UniProt O00767); test: Growth inhibition of humanized yeast strain expressing SCD1 as sole desaturase; conditions: humanized yeast strain expressing SCD1
T1 construct: host or cells: S. cerevisiae ole1Δ strain (W303 pdr1Δ pdr3Δ background), plasmid pRS316 with TDH3 promoter and CYC1 terminator
T1 sequence (O00767 1-359): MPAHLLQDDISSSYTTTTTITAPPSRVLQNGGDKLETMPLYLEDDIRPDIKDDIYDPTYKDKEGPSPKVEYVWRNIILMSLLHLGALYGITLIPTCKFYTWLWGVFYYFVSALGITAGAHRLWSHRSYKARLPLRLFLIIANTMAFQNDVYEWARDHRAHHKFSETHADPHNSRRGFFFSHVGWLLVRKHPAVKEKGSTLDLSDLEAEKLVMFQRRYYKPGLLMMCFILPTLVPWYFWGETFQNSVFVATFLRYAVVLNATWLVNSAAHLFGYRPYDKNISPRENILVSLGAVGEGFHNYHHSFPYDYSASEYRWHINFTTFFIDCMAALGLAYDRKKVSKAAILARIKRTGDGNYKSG
Method in brief: (§1)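 Plasmid-complemented ole1Δ yeast, drug-pump deleted (pdr1Δ pdr3Δ), depend solely on the introduced Ole1, SCD1 or SCD5 desaturase. Compounds are added from DMSO to cells in uracil-free galactose medium, 2× density 0.02, and OD600 is read after 24 h or 40 h respectively.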

SCD5 = target: T2, SCD5 (Homo sapiens, UniProt Q86SK9); test: Growth inhibition of humanized yeast strain expressing SCD5 as sole desaturase; conditions: humanized yeast strain expressing SCD5
T2 construct: host or cells: S. cerevisiae ole1Δ strain (W303 pdr1Δ pdr3Δ background), plasmid pRS316 with TDH3 promoter and CYC1 terminator
T2 sequence (Q86SK9 1-330): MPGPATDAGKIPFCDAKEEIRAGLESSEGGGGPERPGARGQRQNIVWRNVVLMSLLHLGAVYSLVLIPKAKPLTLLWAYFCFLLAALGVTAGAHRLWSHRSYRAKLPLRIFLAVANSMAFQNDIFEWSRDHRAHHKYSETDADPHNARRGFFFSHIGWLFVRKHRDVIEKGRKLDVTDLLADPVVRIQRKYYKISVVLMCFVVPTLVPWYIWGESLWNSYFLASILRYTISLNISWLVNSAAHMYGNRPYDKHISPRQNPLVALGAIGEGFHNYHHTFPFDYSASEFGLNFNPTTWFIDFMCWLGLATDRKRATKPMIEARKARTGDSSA
Method in brief: as §1

Ole1 = target: T3, Ole1 (Saccharomyces cerevisiae, UniProt P21147); test: Growth inhibition of yeast strain expressing Ole1 as sole desaturase; conditions: yeast strain expressing Ole1 as sole desaturase
T3 construct: expressed in transfected cells; host or cells: S. cerevisiae ole1Δ strain (W303 pdr1Δ pdr3Δ background), plasmid pRS316 with TDH3 promoter and CYC1 terminator
T3 sequence (P21147 1-510): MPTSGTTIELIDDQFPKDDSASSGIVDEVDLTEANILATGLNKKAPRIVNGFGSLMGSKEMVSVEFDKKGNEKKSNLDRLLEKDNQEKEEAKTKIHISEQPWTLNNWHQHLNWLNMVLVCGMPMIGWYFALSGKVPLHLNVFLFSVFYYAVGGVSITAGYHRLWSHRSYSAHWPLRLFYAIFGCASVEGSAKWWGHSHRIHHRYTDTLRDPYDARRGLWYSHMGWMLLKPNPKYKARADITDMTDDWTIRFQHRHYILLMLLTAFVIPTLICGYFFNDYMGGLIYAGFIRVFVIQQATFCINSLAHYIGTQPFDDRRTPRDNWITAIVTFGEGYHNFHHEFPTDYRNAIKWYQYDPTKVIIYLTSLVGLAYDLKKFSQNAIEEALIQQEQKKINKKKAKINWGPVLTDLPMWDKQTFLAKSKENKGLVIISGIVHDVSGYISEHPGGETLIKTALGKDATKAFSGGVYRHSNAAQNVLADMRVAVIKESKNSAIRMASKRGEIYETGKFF
Protocol: Strain oleΔ (yeast ole1 deletion mutant) was constructed by deleting OLE1 with NAT-MX6 in BY4741, amplifying the deletion cassette from the genomic DNA of the resulting strain with primers flanking the ORF by 1000 bp upstream and downstream, transforming the resulting deletion cassette into W303 pdr1Δ pdr3Δ, and plating transformants on YPD media containing G418 (200 μg/mL) and nourseothricin ([…]) with 0.01% TWEEN®-20 and 0.5 mM oleic and palmitoleic acids.
The coding sequence of yeast OLE1 was also cloned into this plasmid). These clones were then transformed into the ole1Δ strain and plated on CSM-Ura media (CSM lacking uracil) with 2% glucose (w/v) and independent colonies were isolated and amplified.
All compound profiling experiments were performed using the same basic protocol. Different genetic backgrounds (e.g., gene deletions) or conditions (e.g., addition of oleic and palmitoleic acid) were replaced as indicated below.
Yeast were cultured using standard techniques in complete synthetic media (CSM) and yeast nitrogen base supplemented with 2% (w/v) carbon source (glucose, raffinose, or galactose) to regulate the expression of the toxic disease protein. An initial starter culture was inoculated in 3 mL CSM-Glucose media and incubated overnight in a 30° C. shaker incubator (225 rpm). Saturated morning cultures were then diluted 1:20 in fresh CSM-Raffinose media and grown for 6 h to an OD600 (optical density) of ˜0.4-0.8 at 30° C. with shaking.
Compound administration was performed in two separate steps. First, 15 μL of CSM-Galactose (induces expression of toxic protein) was dispensed into clear 384 well assay plates using a MULTIDROP™ Combi reagent dispenser. […] The cultures described above were then diluted to a 2× concentration (0.03 and 0.08 for alpha-synuclein and ApoE, final ODsoo of 0.015 and 0.04) in CSM-Galactose. For wild-type and Ole1/SCD1/SCD5 plasmid-containing strains, the 2× cell density was 0.02. […] For 96-well assays (FIGS. 1A and 1B), compound dilutions in DMSO were generated in 96 well plates and 1 μL was manually pipetted into 96 well clear bottom assay plates.
For experiments using a plasmid-borne copy of Ole1, SCD1, or SCD5 (FIGS. 3B, 6, and 7), media lacking uracil (SX-Ura, where X is glucose, raffinose, or galactose), was used for all steps of the compound profiling protocol to ensure its maintenance throughout the assay.
After yeast delivery, assay plates were incubated under humidified conditions at 30° C. for 24 to 40 h. ApoE4 rescue experiments were stopped at 24 h, aSyn experiments at 40 h, Ole1 at 24 h, and SCD1/SCD5 at 40 h. The growth of yeast was monitored by reading the ODsoo of each well using a microplate reader (Perkin Elmer EnVision™).

## CCOc1ccc(-c2noc(C3CCN(C(=O)CN4Cc5cc(F)ccc5C4=O)CC3)n2)cc1OC [Compound 176]
SCD1
  IC50: > 45 µM
  SCD1 % Max Inhibition: 107.22%
SCD5
  IC50: > 45 µM
  SCD5 % Max Inhibition: 83.50%
Ole1
  IC50: > 45 µM
  OLE1 % Max Inhibition: 3.62%

## CCOc1ccc(-c2noc(C3CCN(C(=O)CN4Cc5ccc(F)cc5C4=O)CC3)n2)cc1OC [Compound 177]
SCD1
  IC50: > 45 µM
  SCD1 % Max Inhibition: 97.88%
SCD5
  IC50: > 45 µM
  SCD5 % Max Inhibition: 86.13%
Ole1
  IC50: > 45 µM
  OLE1 % Max Inhibition: 40.70%

## CCOc1ccc(-c2noc(C3CCN(C(=O)CN4Cc5cccc(F)c5C4=O)CC3)n2)cc1OC [Compound 178]
SCD1
  IC50: > 45 µM
  SCD1 % Max Inhibition: 114.07%
SCD5
  IC50: > 45 µM
  SCD5 % Max Inhibition: 85.67%
Ole1
  IC50: > 45 µM
  OLE1 % Max Inhibition: 7.39%

## Cc1ccc(N2CC(C(=O)N3CCC(c4nc(-c5ccc6c(C)nn(C)c6c5)no4)CC3)CC2=O)cn1 (stereo not drawn) [Compound 179]
SCD1
  IC50: > 45 µM
  SCD1 % Max Inhibition: 106.53%
SCD5
  IC50: > 45 µM
  SCD5 % Max Inhibition: 85.02%
Ole1
  IC50: 38.7 µM
  OLE1 % Max Inhibition: 76.70%

## CC(C)n1cc2ccc(-c3noc(C4CCN(C(=O)C5CC(=O)N(c6ccccc6)C5)CC4)n3)cc2n1 (stereo not drawn) [Compound 180]
SCD1
  IC50: > 45 µM
  SCD1 % Max Inhibition: 102.85%
SCD5
  IC50: > 45 µM
  SCD5 % Max Inhibition: 82.28%
Ole1
  IC50: > 45 µM
  OLE1 % Max Inhibition: 107.78%

## CC(C)n1cc2ccc(-c3noc(C4CCN(C(=O)CNC(=O)c5ccccc5)CC4)n3)cc2n1 [Compound 181]
SCD1
  IC50: > 45 µM
  SCD1 % Max Inhibition: 88.32%
SCD5
  IC50: > 45 µM
  SCD5 % Max Inhibition: 81.40%
Ole1
  IC50: > 45 µM
  OLE1 % Max Inhibition: 20.70%

## O=C(CN1Cc2ccccc2C1=O)N1CCC(c2nc(-c3ccc4nonc4c3)no2)CC1 [Compound 182]
SCD1
  IC50: > 45 µM
  SCD1 % Max Inhibition: 113.27%
SCD5
  IC50: > 45 µM
  SCD5 % Max Inhibition: 79.82%
Ole1
  IC50: > 45 µM
  OLE1 % Max Inhibition: 124.27%

## Cc1cc(N2CC(C(=O)N3CCC(c4nc(-c5ccc6c(C)nn(C)c6c5)no4)CC3)CC2=O)ccn1 (stereo not drawn) [Compound 183]
SCD1
  IC50: > 45 µM
  SCD1 % Max Inhibition: 101.67%
SCD5
  IC50: > 45 µM
  SCD5 % Max Inhibition: 84.88%
Ole1
  IC50: > 45 µM
  OLE1 % Max Inhibition: 101.71%

## Cc1ccc(N2CC(C(=O)N3CCC(c4nc(-c5ccc6c(C)nn(C)c6c5)no4)CC3)CC2=O)nc1 (stereo not drawn) [Compound 184]
SCD1
  IC50: > 45 µM
  SCD1 % Max Inhibition: 86.33% and 50.65%
SCD5
  IC50: > 45 µM
  SCD5 % Max Inhibition: 2.41% and 11.92%
Ole1
  IC50: > 45 µM
  OLE1 % Max Inhibition: 3.07% and 0.87%

## COc1ccc(-c2noc(C3CCN(C(=O)[C@@H](CO)NC(=O)c4ccccc4)CC3)n2)cc1OC [Compound 185]
SCD1
  IC50: > 45 µM
  SCD1 % Max Inhibition: 97.91%
SCD5
  IC50: > 45 µM
  SCD5 % Max Inhibition: 72.91%
Ole1
  IC50: > 45 µM
  OLE1 % Max Inhibition: 93.51%

## Cc1nn(C)c2cc(-c3noc(C4CCN(C(=O)[C@@H](CO)NC(=O)c5ccccc5)CC4)n3)ccc12 [Compound 186]
SCD1
  IC50: > 45 µM
  SCD1 % Max Inhibition: 86.16%
SCD5
  IC50: 30 µM
  SCD5 % Max Inhibition: 73.51%
Ole1
  IC50: > 45 µM
  OLE1 % Max Inhibition: 35.40%

## COc1cc(OC)cc(-c2noc(C3CCN(C(=O)CNC(=O)c4ccccc4)CC3)n2)c1 [Compound 187]
SCD1
  IC50: > 45 µM
  SCD1 % Max Inhibition: 72.13%
SCD5
  IC50: > 45 µM
  SCD5 % Max Inhibition: 2.91%
Ole1
  IC50: > 45 µM
  OLE1 % Max Inhibition: 97.42%

## Cc1nn(C)c2cc(-c3noc(C4CCN(C(=O)C5CC(=O)N(c6ccc(F)cc6)C5)CC4)n3)ccc12 (stereo not drawn) [Compound 188]
SCD1
  IC50: > 45 µM
  SCD1 % Max Inhibition: 78.63%
SCD5
  IC50: > 45 µM
  SCD5 % Max Inhibition: 4.51%
Ole1
  IC50: > 45 µM
  OLE1 % Max Inhibition: 4.70%
